Data: publication PMC12186697, “HypoxyStat, a small-molecule form of hypoxia therapy that increases oxygen-hemoglobin affinity” (Cell, 2025)
“And” between values parts separate entries of the source, which are not always exact repeats. Identical values can stand only once.

Experiments:
[1] = target: T1, hemoglobin (Hb) in human red blood cells (Homo sapiens, UniProt P69905); test: Oxy-hemoglobin dissociation curve (Hemox Analyzer), p50; assay type: biochemical
T1 construct: incubated for at least one hour at 37C with whole blood before Hemox analysis; endogenous in cells; host or cells: human red blood cells / whole blood
T1 sequence (P69905 2-142 limits assumed): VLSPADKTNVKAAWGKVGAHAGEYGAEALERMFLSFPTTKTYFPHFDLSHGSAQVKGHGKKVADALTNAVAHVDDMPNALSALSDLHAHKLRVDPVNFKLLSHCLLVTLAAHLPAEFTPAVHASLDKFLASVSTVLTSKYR
T1 sequence (P68871 2-147 partner limits assumed): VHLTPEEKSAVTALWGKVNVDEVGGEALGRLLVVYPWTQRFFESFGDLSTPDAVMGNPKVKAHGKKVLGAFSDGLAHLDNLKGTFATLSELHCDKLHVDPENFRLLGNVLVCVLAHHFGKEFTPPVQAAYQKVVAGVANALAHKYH
Procedure: One of the most extensively studied compounds for sickle cell anemia is GBT-440 (Voxelotor) (Figure 1B).[25] The extent of left-shifting can be assessed by determining the p50 or the partial pressure of oxygen at which half of the total Hb pool is bound to oxygen. We incubated human red blood cells with GBT-440 and observed a ~75% decrease in p50 (from ~28 to ~7 mmHg), consistent with previously reported values (Figure 1D). Experiments were performed using a HemOx analyzer that monitors oxygen saturation via Hb absorbance across a range of dissolved oxygen tensions. Upon further review of the sickle cell anemia literature, we found another compound, hereafter termed HypoxyStat (Figure 1B), which appeared to have a similar p50 as GBT-440.[26] We confirmed that HypoxyStat induced an ~82% decrease in p50 (Figure 1D).
Oxy-hemoglobin dissociation analysis was performed by the UCSF RBC laboratory using the TCS Hemox Analyzer (TCS Medical Products Company, Huntington Valley, PA). Initial pO2 is set to 160 mmHg. Hemoglobin is fully oxygenated under these conditions (HbO% =100). Replacement of air with nitrogen lowers pO2 and is measured by Clark electrode along with the change in the absorbance spectrum of hemoglobin. At a pO2 of 0 mmHg, hemoglobin is fully deoxygenated (HbO% =0). The relation between pO2 and HbO% is plotted, and the pO2 at which HbO% = 50% is defined as P50. The typical sigmoid de-oxygenation curve of normal blood with a P50 of 26–28 mmHg is used as a control for incubation conditions and to ensure proper function of the Hemox analyzer. For left-shifter comparison, the compounds were dissolved in HEPES buffered saline and then incubated for at least one hour at 37C with whole blood before Hemox analysis. A control of whole blood incubated with vehicle is also reported.

Ndufs4 KO mouse = Ndufs4 KO mouse model of Leigh syndrome (survival, body weight, temperature, behavior, neuropathology); assay type: in vivo
From the text: We continuously bred Ndufs4 Het x Het mice to generate KO and controls for our experiments. Ndufs4+/− and WT mice were used as controls as they are identical in all previously reported assays. Ndufs4 mice were obtained directly from Jackson labs (#027058). Pups were weaned and genotyped at ~21 d after birth. The age of mice at the time of experiments is described throughout the text. Male and female mice were used throughout studies. All cages were provided with food and water, with hydrated gel provided to newly weaned cages. Body weights were recorded at every dosing. Mice were euthanized according to guidelines at 20% drop in peak body weight. All animal studies were approved by the Institutional Animal Care & Use Committee (IACUC) Program at UCSF/Gladstone.
Mice were administered HypoxyStat at 600 mg/kg every other day or 400mg/kg daily via oral gavage. For the disease prevention experiments, KO mice that underwent daily dosing were dosed starting ~P30 for 1 week of 200mg/kg daily, followed by 400mg/kg daily to allow for gradual dose escalation. For the reversal study, KO mice were dosed once with 200mg/kg on postnatal day ~P55, followed by 400mg/kg daily. HypoxyStat was formulated as a suspension at 60 mg/mL, 40mg/ml or 80mg/ml depending on dose in 0.5%HPMC and stored at 4 °C. The formulation was determined to be stable for at least 8 weeks. Animal body weight was taken at time of dosing to determine appropriate dosing volume (10 mL/kg for every other day dosing, 5ml/kg for daily dosing). Vehicle treated mice were administered the same volume of 0.5% HPMC.
Mice were euthanized via CO2 inhalation. To perfuse the whole body, the right atrium was nicked and a needle was inserted into the left ventricle. Ice-cold PBS was slowly injected first, followed immediately by 4% PFA solution. The brain was removed, stored in 4% PFA for 24–48 h, and then washed with PBS for 5 min (3 times). The brains were placed in 70% ethanol followed by paraffin embedding. For paraffin sections, brains were sagittally sectioned at 5 μm thickness. Prior to staining, sections were deparaffinized. Antigen retrieval was performed by heating the slides to boiling temperature in 10 mM sodium citrate solution (pH 6) in a microwave, followed by heating for 10 minutes. The sections were rinsed 3 times for 5 minutes each with PBS. They were then incubated in a blocking solution containing 5% donkey serum (DS) in PBS-Tx (PBS with 0.2% Triton X-100) for 60 minutes at room temperature. After blocking, sections were incubated overnight at 4C with the primary antibody IBA1 (Genetex GTX100042, 1:250) and NeuN (Sigma, MAB377, 1:500). Afterward, the sections were rinsed 3 times for 5 minutes with PBS-Tx. Next, they were incubated with a fluorophore-conjugated secondary antibodies (Invitrogen, A21206 or A31570) for 1 hour at room temperature. Following secondary antibody incubation, the sections were rinsed 3 times for 5 minutes with PBS-Tx, and then once for 5 minutes with PBS. Histology was quantified using either the percentage of Iba1+ positive signal or blinded scoring (on the scale of 1–5).
The open field instrument (San Diego Instruments) was used to measure spontaneous locomotor activity. Mice were placed in open field chambers and allowed to acclimate for 5 min before movement tracking for 20min. Spontaneous locomotor activity was measured based on beam breaks and recorded by the instrument. Age of measurements is +/− 5 days for practical purposes without any age bias between groups.

[2] = system: hypoxia transcriptional response (HIF); test: Hypoxia biomarkers in mice (plasma Epo, hematocrit, blood glucose, hypoxia-induced brain transcripts); assay type: in vivo, mouse; conditions: GBT-440
Procedure: Plasma Epo measurements were performed with R&D Systems Epo Elisa Kit (MEP00B) according to manufacturer directions. Briefly, whole blood was collected with anticoagulant before centrifugation within 30 minutes of collection and stored at −80C until day of analysis. On the day of Epo assay, samples were thawed and diluted 2-fold and incubated in the assay plate for two hours. Each well was washed five times before the addition of Epo Conjugate followed by a two-hour incubation. Each well was washed five times before adding Substrate Solution to develop for 30 minutes before addition of Stop Solution. The optical density of each well was determined at 450nm and correction wavelength of 540/570.
Hematocrit was determined with an iStat VetScan 1 with Zoetis Chem 8+ cartridges. Blood glucose measurements were performed using OneTouch UltraPlus glucometer. Whole blood chemistry measurements were performed on a VetScan HM5.
Half of the hindbrain was collected at necropsy and immediately flash frozen. For RNA extraction, a stainless-steel bead (Qiagen) and 1 mL TRIzol™ Reagent (Thermo Fisher Scientific) were added to the frozen samples, which were rapidly lysed using a tissue lyser (Qiagen) for five 1-minute cycles of 30 Hz frequency. Subsequent steps for RNA isolation were identical as previously described.[9] Reverse transcription was performed using the QuantiTect Reverse Transcription Kit (Qiagen) instructions. Briefly, gDNA was wiped out from samples containing 1 μg RNA. gDNA-free RNA samples were reverse transcribed following Qiagen’s instructions. […] For each set of triplicates, an average CT value was obtained, and the difference in average CT between the target gene and β-actin was calculated (ΔCT). Next, the difference in ΔCT value between each sample and the average of the normoxia samples was calculated (ΔΔCT). Relative expression of each gene was determined by calculating 2^−ΔΔCT.

[3] = parameters: method as in PMID 28337324; conditions: Figure 2A, cited from earlier work
Hb = system: Hb; parameters: method as in PMID 28337324; conditions: Figure 2A; cited from earlier work
[4] = GBT-440 daily maximal dosing from P30

For `CC(C)n1nccc1-c1ncccc1COc1cccc(O)c1C=O` [GBT-440], which p50 ([1]; human red blood cells incubated 1 h with 10 mM compound, vehicle ~28 mmHg) is on record?
The p50 was 7.2 mmHg and ~ 7 mmHg.

What about the “decrease in p50” value ([1]; human red blood cells incubated with compound, vs vehicle) of the same compound?
Its value is ~ 75%.

What about the “lifespan of Ndufs4 KO mice vs vehicle” value (Ndufs4 KO mouse; GBT-440 daily maximal dosing (400 mg/kg after 1 week at 200 mg/kg) from P30) of the same compound?
Its value is “did not result in a significant lifespan extension”.

And the “spontaneous movement (open field), Ndufs4 KO mice” value (Ndufs4 KO mouse; [4])?
Its value is “failed to rescue”.

And the “time on an accelerating rotating rod, Ndufs4 KO mice” value (Ndufs4 KO mouse; [4])?
Its value is “failed to rescue”.

And the “body temperature of Ndufs4 KO mice” value (Ndufs4 KO mouse; GBT-440 daily maximal dosing from P30, ~P55)?
The value was “failed to rescue”.

And the “hypoxia biomarker response compared with HypoxyStat and inhaled hypoxia” value [2]?
Its value is “significantly blunted response”.

What about the “Mouse PO blood:plasma” value ([3]; PO) of the same compound?
The value was 63.2.

What about the “Mouse PO half-life” value ([3]; PO) of the same compound?
Its value is 15.8 h.

What about the Cmax ([3]; mouse) of the same compound?
The Cmax was 2210 nM.

What about the “Hb occupancy” value (Hb) of the same compound?
Its value is 6.5%.
